Test results published in PubChem BioAssay AID1259411 (Chemical Carcinogenesis Research Information System (CCRIS), 2018).
Active and inactive are the calls of the source. No rule for the calls is given here.

Test system: rodent carcinogenicity bioassays, tumor incidence
Test: CCRIS carcinogenicity studies
Settings: Dose: 0, Dose: 0
Summary of the method: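 NCI-built, expert-reviewed records of carcinogenicity and related test outcomes (mutagenicity, tumor promotion/inhibition) compiled from published and report sources, historical span 1985-2011, not updated.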

For `C=C(C)C`, the carcinogen call (Species: MOUSE, Strain/Sex: B6C3F1/FEMALE, Route: INHALATION, 500, 2000, 8000 PPM 6 HR/D 5 D/WK FOR 105 WK (STUDY DURATION: 105 WK), 500, 2000, 8000 PPM 6 HR/D 5 D/WK FOR 105 WK (STUDY DURATION: 105 WK)) was “inactive; negative”, the carcinogen call (Species: MOUSE, Strain/Sex: B6C3F1/MALE, Route: INHALATION, 500, 2000, 8000 PPM 6 HR/D 5 D/WK FOR 105 WK (STUDY DURATION: 105 WK), 500, 2000, 8000 PPM 6 HR/D 5 D/WK FOR 105 WK (STUDY DURATION: 105 WK)) was “inactive; negative” and the carcinogen call (Species: RAT, Strain/Sex: F344/N/FEMALE, Route: INHALATION, 500, 2000, 8000 PPM 6 HR/D 5 D/WK FOR 105 WK (STUDY DURATION: 105 WK), 500, 2000, 8000 PPM 6 HR/D 5 D/WK FOR 105 WK (STUDY DURATION: 105 WK)) was “inactive; negative”. For the same compound, the carcinogen call (Species: RAT, Strain/Sex: F344/N/MALE, Route: INHALATION, 500, 2000;8000 PPM 6 HR/D 5 D/WK FOR 105 WK (STUDY DURATION: 105 WK), 500, 2000;8000 PPM 6 HR/D 5 D/WK FOR 105 WK (STUDY DURATION: 105 WK), Tumor Site: Type of Lesion: THYROID GLAND: FOLLICULAR CELL CARCINOMA) was “equivocal”.

For `Nc1nc2c(ncn2[C@@H]2C[C@H](CO)[C@H]2CO)c(=O)[nH]1`, the carcinogen call (Species: Mouse, Strain/Sex: CD-1/Female (60/Group), Route: Oral, 30, 150, 750 mg/kg in diet for 104 wk, 30, 150, 750 mg/kg in diet for 104 wk, Tumor Site: Type of Lesion: Upper digestive tract: squamous cell papilloma and carcinoma (0/60 and 0/60 in controls vs 0/60, 3/60, and 4/60, respect) was “active; positive” and the carcinogen call (Species: Mouse, Strain/Sex: CD-1/Male (60/Group), Route: Oral, 10, 50, 250 mg/kg in diet for 104 wk, 10, 50, 250 mg/kg in diet for 104 wk, Tumor Site: Type of Lesion: Upper digestive tract: squamous cell papilloma or carcinoma (0/60 and 0/60 in controls vs 0/60, 3/60, and 4/60, respecti) was “active; positive”.

`C#CCN1C(=O)COc2cc(F)c(N3C(=O)C4=C(CCCC4)C3=O)cc21` was tested, and the carcinogen call (Species: Mouse, Strain/Sex: Crj:CD-1 (ICR)/Female (51/Group), Route: Oral, 36.6, 346.4, 859.1 mg/kg/day of 94.8% flumioxazin in diet for 78 wk, study duration 78 wk, 36.6, 346.4, 859.1 mg/kg/day of 94.8% flumioxazin in diet for 78 wk, study duration 78 wk) was “inactive; negative”, the carcinogen call (Species: Mouse, Strain/Sex: Crj:CD-1 (ICR)/Male (51/Group), Route: Oral, 31.1, 314.9, 754.1 mg/kg/day of 94.8% flumioxazin in diet for 78 wk, study duration 78 wk, 31.1, 314.9, 754.1 mg/kg/day of 94.8% flumioxazin in diet for 78 wk, study duration 78 wk) was “inactive; negative” and the carcinogen call (Species: Rat, Strain/Sex: Crj:CD(SD)/Female (50/Group), Route: Oral, 2.2, 21.8, 43.6 mg/kg/day of 94.8% flumioxazin in diet for up to 2 yr, study duration 2 yr, 2.2, 21.8, 43.6 mg/kg/day of 94.8% flumioxazin in diet for up to 2 yr, study duration 2 yr) was “inactive; negative”. The carcinogen call (Species: Rat, Strain/Sex: Crj:CD(SD)/Male (50/Group), Route: Oral, 1.8, 18.0, 36.5 mg/kg/day of 94.8% flumioxazin in diet for up to 2 yr, study duration 2 yr, 1.8, 18.0, 36.5 mg/kg/day of 94.8% flumioxazin in diet for up to 2 yr, study duration 2 yr) was “inactive; negative”.

With `O=C1OC2(c3ccccc31)c1ccc(O)c(Br)c1Oc1c2ccc(O)c1Br` the carcinogen call (Species: MOUSE, Strain/Sex: ICR/FEMALE, Route: DERMAL, 1 MG IN 0.1 ML DISTILLED WATER 2/WK FOR A MEAN TOTAL DOSE OF 136.5 MG (STUDY DURATION: 18 MO)) was “inactive; negative” and the carcinogen call (Species: MOUSE, Strain/Sex: ICR/MALE, Route: DERMAL, 1 MG IN 0.1 ML DISTILLED WATER 2/WK FOR A MEAN TOTAL DOSE OF 136.5 MG (STUDY DURATION: 18 MO)) was “inactive; negative”.

`S=C([S-])NCCNC(=S)[S-].[Zn+2]` was tested, and the carcinogen call (Species: MOUSE, Strain/Sex: CD/FEMALE, Route: ORAL, 100, 300 PPM IN DIET FOR 89 WK (STUDY DURATION: 94 WK), 100, 300 PPM IN DIET FOR 89 WK (STUDY DURATION: 94 WK)) was “inactive; negative”, the carcinogen call (Species: MOUSE, Strain/Sex: CD/FEMALE, Route: ORAL, 1000 PPM IN DIET FOR 88 WK (STUDY DURATION: 88 WK)) was “inactive; negative” and the carcinogen call (Species: MOUSE, Strain/Sex: CD/MALE, Route: ORAL, 100, 300, 1000 PPM IN DIET FOR 95 WK (STUDY DURATION: 96 WK), 100, 300, 1000 PPM IN DIET FOR 95 WK (STUDY DURATION: 96 WK)) was “inactive; negative”. For the same compound, the carcinogen call (Species: RAT, Strain/Sex: CD/FEMALE, Route: ORAL, 5, 20, 80, 320 PPM IN DIET FOR 112 WK (STUDY DURATION: 112 WK), 5, 20, 80, 320 PPM IN DIET FOR 112 WK (STUDY DURATION: 112 WK)) was “inactive; negative” and the carcinogen call (Species: RAT, Strain/Sex: CD/MALE, Route: ORAL, 5, 20, 80, 320 PPM IN DIET FOR 119 WK (STUDY DURATION: 119 WK), 5, 20, 80, 320 PPM IN DIET FOR 119 WK (STUDY DURATION: 119 WK)) was “inactive; negative”.

`COc1ccc(OC)c(N=Nc2c(O)ccc3ccccc23)c1` was tested, and the carcinogen call (Species: MOUSE, Strain/Sex: C57 X 1F F1, Route: BLADDER IMPLANT, 12.5% SUSPENSION IN PARAFFIN WAX (STUDY DURATION: 40 WK), Tumor Site: Type of Lesion: BLADDER: CARCINOMA) was “active; positive”.

For `CC(CN1c2ccccc2Sc2ccccc21)N(C)C` (stereo unspecified), the carcinogen call (Species: MOUSE, Strain/Sex: B6C3F1/FEMALE, Route: GAVAGE, 3.75, 7.5, 15 MG/KG IN WATER 1/D 5 D/WK FOR 103 WK (STUDY DURATION: 106 WK), 3.75, 7.5, 15 MG/KG IN WATER 1/D 5 D/WK FOR 103 WK (STUDY DURATION: 106 WK)) was “inactive; negative”, the carcinogen call (Species: MOUSE, Strain/Sex: B6C3F1/MALE, Route: GAVAGE, 11.25, 22.5, 45 MG/KG IN WATER 1/D 5 D/WK FOR 103 WK (STUDY DURATION: 106 WK), 11.25, 22.5, 45 MG/KG IN WATER 1/D 5 D/WK FOR 103 WK (STUDY DURATION: 106 WK)) was “inactive; negative” and the carcinogen call (Species: RAT, Strain/Sex: F344/FEMALE, Route: GAVAGE, 8.3, 16.6, 33.3 MG/KG IN WATER 1/D 5 D/WK FOR 103 WK (STUDY DURATION: 106 WK), 8.3, 16.6, 33.3 MG/KG IN WATER 1/D 5 D/WK FOR 103 WK (STUDY DURATION: 106 WK)) was “inactive; negative”. The carcinogen call (Species: RAT, Strain/Sex: F344/MALE, Route: GAVAGE, 8.3, 16.6, 33.3 MG/KG IN WATER 1/D 5 D/WK FOR 103 WK (STUDY DURATION: 106 WK), 8.3, 16.6, 33.3 MG/KG IN WATER 1/D 5 D/WK FOR 103 WK (STUDY DURATION: 106 WK)) was “inactive; negative”.

In the case of `CC1(C)C(C=C(Cl)Cl)C1C(=O)OC(C#N)c1ccc(F)c(Oc2ccccc2)c1` (stereo unspecified), the carcinogen call (Species: Mouse, Strain/Sex: CD-1/Female (56/dose), Route: Oral, 200, 750, 1,600 ppm (0; 38.4; 140/6; 309.7 mg/kg/day) of 94-95% pure cyfluthrin in feed for 18 mo, 200, 750, 1,600 ppm (0; 38.4; 140/6; 309.7 mg/kg/day) of 94-95% pure cyfluthrin in feed for 18 mo) is reported as “inactive; negative”, the carcinogen call (Species: Mouse, Strain/Sex: CD-1/Male (56/dose), Route: Oral, 200, 750, 1,400 ppm (0; 31.9; 114.8; 232.7 mg/kg/day) of 94-95% pure cyfluthrin in feed for 18 mo, 200, 750, 1,400 ppm (0; 31.9; 114.8; 232.7 mg/kg/day) of 94-95% pure cyfluthrin in feed for 18 mo) is reported as “inactive; negative” and the carcinogen call (Species: Rat, Strain/Sex: Fisher 344/Female (55/dose), Route: Oral, 50, 225, 450 ppm (3.3; 14.4; 28.3 mg/kg/day) of 93.9-95.1% pure cyfluthrin in feed for 2 yr, 50, 225, 450 ppm (3.3; 14.4; 28.3 mg/kg/day) of 93.9-95.1% pure cyfluthrin in feed for 2 yr) is reported as “inactive; negative”. The carcinogen call (Species: Rat, Strain/Sex: Fisher 344/Male (55/dose), Route: Oral, 50, 225, 450 ppm (2.6; 11.6; 22.8 mg/kg/day) of 93.9-95.1% pure cyfluthrin in feed for 2 yr, 50, 225, 450 ppm (2.6; 11.6; 22.8 mg/kg/day) of 93.9-95.1% pure cyfluthrin in feed for 2 yr) was “inactive; negative”.
